Laboratory results taken from publication PMC3760131 (Acta Crystallographica Section D: Biological Crystallography, 2013).
Read-outs that look alike come from different tables or passages of the source. Where a SMILES comes first, the peptide text is derived from it.

B1: XIAP BIR2(152–236;C202A,C213G) (domain or fragment, human)
chain: GTIYPRNPAMYSEEARLKSFQNWPDYAHLTPRELASAGLYYTGIGDQVQCFACGGKLKNWEPGDRAWSEHRRHFPNCFFVLGRNLN
notes: printed as hBIR2; Two molecules (A and B) in the crystal; also called hBIR2(152–236;C202A,C213G); BIR2 domain of XIAP; source: E. coli Rosetta2(DE3)pLysS, purified (Ni-NTA, TEV cleavage, Superdex 75); not shown: His6, N-terminal, cleaved

Legend:
XIAP BIR2 = target: T1, XIAP BIR2 (Homo sapiens, UniProt P98170); experiment: BIR2 TR-FRET assay (displacement of AVPI-derived peptide); format: binding
T1 construct: 6×histidine-tagged BIR2 (amino acids 124–240) or BIR3 (amino acids 241–356) domain of the XIAP protein
Method: (§1) Time-resolved fluorescence resonance energy transfer (TR-FRET) signals were measured 1 h later at room temperature. Compound potency was assessed at ten serially diluted concentrations. The percentage of inhibition at each concentration was determined to generate an IC50 value for each compound.

XIAP BIR3 = target: T2, XIAP BIR3 (Homo sapiens, UniProt P98170); experiment: BIR3 TR-FRET assay (displacement of AVPI-derived peptide); format: binding
T2 construct: 6×histidine-tagged BIR2 (amino acids 124–240) or BIR3 (amino acids 241–356) domain of the XIAP protein
Method: as §1

[1] = target: 6×histidine-tagged BIR2 (amino acids 124–240) domain of the XIAP protein (UniProt P98170); experiment: AlphaScreen or HTRF; TR-FRET competition: 10 nM 6xHis BIR2 or BIR3 domain with 20 nM …-(epsilon-biotin)-OH; europium streptavidin (1.5 nM) and allophycocyanin anti-histidine antibody (15 nM); 50 mM Tris-HCl pH 7.5, 100 mM NaCl, 1 mM DTT, 0.1 mg/ml BSA; 45 min at 310 K, read 1 h later at room temperature; ten concentrations; Ki from IC50 by Cheng-Prusoff
[2] = target: the molecule itself; experiment: crystal structure; apo BIR2 crystals, sitting drop, 1.7-1.9 M ammonium sulfate, 125 mM bis-tris propane pH 7.0, room temperature; two molecules (A and B)
[3] = FRET-based displacement of AVPI-derived peptide from 6xHis BIR2 (124-240), Ki from IC50 by Cheng-Prusoff, read-out: BIR2 K i
[4] = FRET-based displacement of AVPI-derived peptide from 6xHis BIR3 (241-356), Ki from IC50 by Cheng-Prusoff, read-out: BIR3 K i

T1 sequence (P98170 124-240): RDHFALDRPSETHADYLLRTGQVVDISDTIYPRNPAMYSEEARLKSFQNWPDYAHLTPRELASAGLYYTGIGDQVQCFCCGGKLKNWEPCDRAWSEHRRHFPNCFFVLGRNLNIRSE
T2 sequence (P98170 241-356): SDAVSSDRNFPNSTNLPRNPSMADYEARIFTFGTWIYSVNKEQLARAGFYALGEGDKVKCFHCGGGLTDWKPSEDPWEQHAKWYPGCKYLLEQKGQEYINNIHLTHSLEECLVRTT
Chain of 6×histidine-tagged BIR2 (amino acids 124–240) domain of the XIAP protein (P98170 124-240): as the sequence (P98170 124-240) above

Row | Molecule | Ki (XIAP BIR2; [3]) [µM] | Ki (XIAP BIR3; [4]) [µM] | other results
1 | CC[C@H](C)[C@H](NC(=O)[C@H](C)N)C(=O)N[C@@H](C)C(=O)N[C@H](C(=O)O)C(C)C [AIAV] (H-AIAV-OH) | – | – | Ki (XIAP BIR2): 1.87 µM; Ki (XIAP BIR3): 28.2 µM
2 | CC[C@H](C)[C@H](NC(=O)[C@@H]1CCCN1C(=O)[C@@H](NC(=O)[C@H](C)N)[C@@H](C)CC)C(=O)O [AIPI] (H-AIPI-OH) | 3.11 | 0.08 | –
3 | CC[C@H](C)[C@H](NC(=O)[C@H](CCCNC(=N)N)NC(=O)[C@H](CCSC)NC(=O)[C@H](C)N)C(=O)O [AMRI] (H-AMRI-OH) | 3.52 | 5.2 | –
4 | CSCC[C@H](NC(=O)[C@H](C)N)C(=O)N[C@@H](CCCNC(=N)N)C(=O)N[C@H](C(=O)O)C(C)C [AMRV] (H-AMRV-OH) | 2.41 | 32.9 | –
5 | C[C@H](N)C(=O)N[C@@H](CCCNC(=N)N)C(=O)N1CCC[C@H]1C(=O)N[C@@H](CCCNC(=N)N)C(=O)O [ARPR] (H-ARPR-OH) | > 53 | – | –
6 | C[C@H](N)C(=O)N[C@H](C(=O)N[C@@H](C)C(=O)N[C@@H](C)C(=O)O)[C@@H](C)O [ATAA] (H-ATAA-OH) | 1.7 | > 47 | activity against BIR3 (in words) (XIAP BIR3; TR-FRET assay): inactive
7 | CC(C)[C@H](NC(=O)[C@H](C)NC(=O)[C@@H](NC(=O)[C@H](C)N)[C@@H](C)O)C(=O)O [ATAV] (H-ATAV-OH) | 2.17 | 32.3 | –
8 | CC(C)[C@H](NC(=O)[C@H](C)NC(=O)[C@@H](NC(=O)[C@H](C)N)C(C)C)C(=O)O [AVAV] (H-AVAV-OH) | 1.87 | 26.1 | –
9 | CC(C)[C@H](NC(=O)[C@@H](NC(=O)[C@@H](NC(=O)[C@H](C)N)C(C)C)C(C)C)C(=O)O [AVVV] (H-AVVV-OH) | 2.54 | – | –
10 | CC[C@H](C)[C@H](NC(=O)[C@@H]1CCCN1C(=O)[C@H](CCSC)NC(=O)[C@@H](N)CO)C(=O)O [SMPI] (H-SMPI-OH) | 34 | 12.5 | –
11 | CSCC[C@H](NC(=O)[C@@H](N)CO)C(=O)N[C@@H](CCCNC(=N)N)C(=O)N[C@H](C(=O)O)C(C)C [SMRV] (H-SMRV-OH) | 12.3 | > 47 | –
12 | SMRV | – | – | Ki [1]: 12.2 µM
13 | B1 | – | – | binding result [2]: binds
